Here are results for 1 molecule from patent US20160074297A1, “COMBINATION OF PETROSELINIC ACID AND TAURINE FOR ORAL ADMINISTRATION FOR HAIR AGING CONTROL” (NUTRICOS TECHNOLOGIES, priority 2013, published 2016).

The test system of this assay is human mononuclear cells. Put plainly: Production of lipoxin A4 in human mononuclear cells in vitro stimulated with PMA/A23187 plus DHA/EPA, quantified by LC-MS. The class given is cell-based. Particulars: coriander oil 0.25 mg/ml, taurine 3.1 mg/ml; 30 minutes pre-incubation, then 2 hours of stimulation with phorbol myristate 0.05 μM, calcium ionophore 1 μM, DHA and EPA 1 μg/mL; cell supernatant. How it is done: Mononuclear blood cells are cultured under 5% CO2 and at 37° C. in a serum-free medium for macrophages (SFM Macrophage; Invitrogen 12065074) for 24 hours. […] The inflammatory response was then triggered in the presence of phorbol myristate (0.05 μM) and calcium ionophore (1μM) and a lipid substrate mixture composed of docosahexaenoic acid (DHA−1 μg/mL) and eicosapentaenoic acid (EPA-1μg/mL). The supernatants were then collected after 2 hours of stimulation and frozen at −80° C. before preparation for analysis by mass spectrometry. Experimental triplicates (three wells) were prepared per experimental condition. Into each culture plate was placed a control corresponding to cells stimulated with the PMA/A23187 mixture and/or with addition of the equimolar mixture of fatty acids. The frozen supernatants were concentrated by solid-phase extraction (SPE) and taken up in methanol before spectrometric analysis. The analytical method used consists in separating the various analytes by high-pressure liquid chromatography as a function of their retention time and in quantifying them by mass spectrometry. The analyses were performed using an LC 1290 Infinity chain (Agilent Technologies) coupled to a 6460 Triple Quad LC/MS mass spectrometer (Agilent Technologies) equipped with an electrospray ionization source (Jet stream technology) operating in negative mode. […]

`NCCS(=O)(=O)O` [Taurine]: the “Level of lipoxin A4 production (% modulation relative to the control)” value was “+38%”.
